Patent US20160106106A1, “DRUG-RESISTANT MICROBE AND VARIANT MICROBE DISINFECTANT CONTAINING CHLOROUS ACID AQUEOUS SOLUTION” (HONBU SANKEI CO., LTD., priority 2013, published 2016)
Like-named read-outs stand apart in the source and are kept apart here.

Legend:
[1] = system: Microbes of the genus Bacillus; test: Microbe disinfecting effect on microbes isolated from isolator, Bacillus; format: cell-based; details: average ± S.D.
Description: (§1) In the present Example, since the isolator for raising microbe-free mice was contaminated by environmental microbes, microbes were isolated from the isolator, and microbe disinfecting effects were examined in vitro using various antiseptics of interest.
(§2) Three species of microbes were isolated to analyze 16SrDNA.
(1) A single colony of each isolated microbe that was cultured in a BHI agar medium was cultured for two days at 37° C. in 5 mL of BHI medium. […] (3) Each agent of interest was prepared by diluting with sterile ion exchange water to have a predetermined concentration. 9 mL of each diluent was dispensed into a sterilized test tube. (4) 1 mL of the microbial solution prepared in (2) was added to the agent-containing test tube. A vortex mixer was used to mix well. (5) 1 mL was sampled from the test tube of (4) at a predetermined time. The sampling was added to and mixed with 0.05 mol/L sodium thiosulfate solution for neutralization. (6) 1 mL of the solution after the neutralization treatment was spread on a petri dish. The solution was pour-plate cultured for 24 hours at 37° C. in a BHI agar medium. The number of surviving microbes that had grown was measured.
(§3) The operation was performed three times, and microbial disinfection was evaluated by average value±standard deviation (S. D.)

[2] = system: MRSA; test: Growth suppressing effect against contaminating microbes in urine (MRSA); format: cell-based, Staphylococcus aureus; details: 10 ppm, 50 ppm, 100 ppm, FIG. 6
Description: (§4) The testing method was in accordance with the above-described Examples. The samples prepared as stated above were used.
(§5) Tests were conducted twice using similar samples.

[3] = system: contaminating microbes in urine (MDRP); test: Growth suppressing effect against contaminating microbes in urine (MDRP); format: cell-based, Pseudomonas aeruginosa; details: 10 ppm, 50 ppm, 100 ppm, FIGS. 5 and 6
Description: as §4, §5

[4] = system: Escherichia coli O157 sakai strain (1996, RIMD0509952) on chicken meat (breast meat)
[5] = system: Microbes of the genus Paenibacillus; test: Microbe disinfecting effect on microbes isolated from isolator, Paenibacillus; format: cell-based; details: average ± S.D.
Description: as §1, §2
(1) A single colony of each isolated microbe that was cultured in a BHI agar medium was cultured for two days at 37° C. in 5 mL of BHI medium. (2) After collecting microbes by centrifuging (3000×g, 4° C., 10 min) the culturedmicrobial solution, the microbes were washed twice with sterile saline (0.85%) to prepare a microbial solution of about 10^7 CFU/ml (Inoculam value). (3) Each agent of interest was prepared by diluting with sterile ion exchange water to have a predetermined concentration. 9 mL of each diluent was dispensed into a sterilized test tube. (4) 1 mL of the microbial solution prepared in (2) was added to the agent-containing test tube. A vortex mixer was used to mix well. (5) 1 mL was sampled from the test tube of (4) at a predetermined time. The sampling was added to and mixed with 0.05 mol/L sodium thiosulfate solution for neutralization. (6) 1 mL of the solution after the neutralization treatment was spread on a petri dish. The solution was pour-plate cultured for 24 hours at 37° C. in a BHI agar medium. The number of surviving microbes that had grown was measured.
as §3

[6] = system: Campylobacter jejuni JCM2013 on chicken meat (breast meat)
Description: 1) Enterohemorrhagic Escherichia coli O157: Escherichia coli O157 sakai strain (1996, RIMD0509952) 2) Campylobacter: Campylobacter jejuni JCM2013
2) Campylobacter: Campylobacter jejuni JCM2013 (selected medium: CCDA plate medium)
The selected medium was streaked. A single colony of tested microbes cultured for 48 hours at 37° C. in microaerophilic conditions was extracted with a platinum loop. The colony was then inoculated in a 50 mL×3 BHI medium, shaken and cultured under aerobic conditions for 48 hours at 37° C. (shake rate: 100 rpm).
Chicken meat (breast meat): About 2 kg of domestic (location unknown) chicken breast meat that was purchased the day before the tests was used.
Each cultured microbial solution was centrifuged (rate of centrifugation: 6000 rpm). The liquid medium of the supernatant was disposed. Then, the microbial solution prepared by diluting with sterilized saline to approximately 10^7 was put into a manually operated spray in the same amount to make a 10^6 microbe suspension.

[7] = Sampling 3: after soaking 30 minutes at 400 ppm, raw material:liquid = 1:10
[8] = Sampling 4: after soaking 30 minutes at 400 ppm, washing and draining
[9] = Sampling 5: after soaking 30 minutes at 400 ppm, washing, storage for 24 hours at 4° C.

Molecule: OCl [Sodium hypochlorite]
- number of surviving microbes ([1]; 200 ppm, 5 min): 5.60 ± 0.22 log10 cfu/mL
- number of surviving microbes ([1]; 200 ppm, 10 min): 5.53 ± 0.62 log10 cfu/mL
- number of surviving microbes ([1]; 200 ppm, 30 min): 5.34 ± 0.34 log10 cfu/mL
- number of surviving microbes ([1]; 500 ppm, 5 min): 5.55 ± 0.45 log10 cfu/mL
- number of surviving microbes ([1]; 500 ppm, 10 min): 5.49 ± 0.28 log10 cfu/mL
- number of surviving microbes ([1]; 500 ppm, 30 min): 4.85 ± 0.32 log10 cfu/mL
- number of surviving microbes ([1]; 1000 ppm, 5 min): 3.55 ± 0.46 log10 cfu/mL
- growth suppressing effect [2]: growth suppressing effect
- growth suppressing effect [3]: growth suppressing effect
- number of E. coli O-157 on the chicken meat [4, 7]: 3.3 × 10^4 cfu/mL
- number of E. coli O-157 on the chicken meat [4, 8]: 1.6 × 10^4 cfu/mL
- number of E. coli O-157 on the chicken meat [4, 9]: 5.0 × 10^4 cfu/mL
- number of surviving microbes ([5]; 200 ppm, 5 min): 4.80 ± 0.25 log10 cfu/mL
- number of surviving microbes ([5]; 200 ppm, 10 min): 4.86 ± 0.41 log10 cfu/mL
- number of surviving microbes ([5]; 200 ppm, 30 min): 3.75 ± 0.53 log10 cfu/mL
- number of surviving microbes ([5]; 500 ppm, 5 min): 4.07 ± 0.12 log10 cfu/mL
- number of surviving microbes ([5]; 500 ppm, 10 min): 3.61 ± 0.09 log10 cfu/mL
- number of surviving microbes ([5]; 500 ppm, 30 min): 3.61 ± 0.26 log10 cfu/mL
- number of surviving microbes ([5]; 1000 ppm, 5 min): <2.00 log10 cfu/mL
- number of surviving microbes ([5]; 1000 ppm, 10 min): <2.00 log10 cfu/mL
- number of surviving microbes ([5]; 1000 ppm, 30 min): <2.00 log10 cfu/mL
- number of Campylobacter on the chicken meat [6, 7]: 2.5 × 10^5 cfu/mL
- number of Campylobacter on the chicken meat [6, 8]: 3.2 × 10^5 cfu/mL
- number of Campylobacter on the chicken meat [6, 9]: 4.8 × 10^5 cfu/mL

Molecule: Sodium chlorite
- growth suppressing effect [2]: growth suppressing effect
- growth suppressing effect [3]: growth suppressing effect
